Data set [1] deals with Eimeria tenella Eli Lilly Strain 65 (Lilly 65). Put plainly: In vitro anticoccidial test in chick kidney cell monolayers. The class given is cell-based. The settings on record: 72 h, 3 days, read-out: % Inhibition of Coccidia.
Data set [2] deals with kidney cell monolayer. Put plainly: Toxicity to cultured kidney cell monolayer in the in vitro anticoccidial test. The class given is cell-based, chick. Also on record: key: T: toxic (inhibited kidney cell monolayer formation). The settings on record: 3 days. The procedure: For in vitro screen tests, Hubbard X Hubbard chicks were maintained on drug-free starter diets in brooders in a coccidia-free room. Water was available ad libitum. At 2-3 weeks of age, 3-6 chicks were sacrificed by decapitation and bled. All tissue culture preparation, propagation and test steps were carried out using strict aseptic techniques. Kidney cells next were combined in a single sterile tube and evenly dispersed by agitation. An appropriate dilution (usually 1/10X to 1/25X) was counted microscopically in a hemocytometer and the cell suspension diluted in 500 ml sterile bottles to 200,000 to 250,000 cells/ml of growth medium. Multiwell tissue culture plates (Falcon No. 3008 or Costar No. 3524) were employed in all in vitro screen tests. Immediately after preparation of the kidney cell suspension, each of the 24 wells of 20 to 60 multiwell plates was inoculated with 1 ml of cells using a sterile syringe-type continuous pipettor (Cornwall). Plates then were incubated at once in a 5% CO2 incubator at 39° C. and ≥80% humidity. At about 24 hours one plate was removed and briefly examined for monolayer initiation under phase microscopy at 200X. At 40-48 hours monolayer growth was well initiated and satisfactory for initiation of drug tests. At this time attached cells were spreading and putting out arm-like projections in many areas of each well. The medium on plates which would not be used for drug tests at this time was replaced with prewarmed EBSS plus antibiotics, and these plates were returned to the incubator until time of use 24 to 48 hours later. The latter step was incorporated to remove debris and toxins from the young cell monolayers and also delay monolayer growth until initiation of drug tests. For each test compound an estimated 10 mg of test compound was placed in a 15×150 mm disposable screw-cap test tube (Belco No. 2009-16150). In a typical test employing 25 multiwell plates, tubes containing test compounds were set up and four drops of dimethylsulfoxide (DMSO) were added to each tube. Next 10 ml sterile distilled water was added to each tube and the tubes were capped tightly and mixed by agitation. Primary compound solutions containing about 1000 ppm test compound were serially diluted in disposable tubes (Falcon No. 2051) containing 1/2 strength growth medium, to yield the concentrations shown in Table 3 below. Sterile 1 cc disposable syringes (Tomac) were employed both for making dilutions and adding test compounds to plates. In setting up drug tests, five multiwell plates containing 48-96 hr monolayers were removed as a group from the incubator. The medium was quickly poured off one multiwell plate and 0.5 ml of the lowest dilution of test compound was added to each of two wells in the first column of wells, and an equal volume of a higher dilution of the same substance was added to the remaining two wells in the same column. This procedure was repeated with the next test substance using the wells in the second column on the plate. Dilutions of the remaining test substances were placed in corresponding columns of the plate. After compounds had been added to the first set of five plates, 0.5 ml of a 2×10^5 /ml suspension of sporozoites was added to each well of each plate using a sterile continuous pipettor. To minimize the effects of exposing growth medium to the atmosphere, all additions were made rapidly and inoculated plates were immediately returned to the incubator. Three days after drug and sporozoite addition, plates were removed a few at a time from the incubator for enumeration of parasites. […] The medium was quickly discarded and counts made under phase microscopy at 200X of the total numbers of schizonts and […] per field in each of five random fields. The average number of parasites per field was then calculated. The results of the in vitro anticoccidial tests, which are given in Table 3 below, show the compounds to have toxic effects upon cultured cells.

The subject of data set [3] is Salmonella typhimurium. Format: cell-based.
In data set [4] the test system is antibiotic resistant E. coli (E.C. 324). Format: cell-based. The settings on record: Gram Neg., 6 h, 37° C., aerobic.
Data set [5] relates to E. coli strain 046 (E.C. 046). The class given is cell-based.
Data set [6] deals with Streptococcus sp. 1 X C15 (Strep C15). Format: cell-based.
The subject of data set [7] is Streptococcus sp. 1 X A7 (Strep A7). Format: cell-based.
In data set [8] the test system is Clostridium perfringens (Cp). The class given is cell-based. The following applies: Anaerobic, 6 h, 37° C.
The subject of data set [9] is Bacteroides fragilis (Bf). As to the kind of experiment: Antimicrobial growth inhibition, Bf. Format: cell-based. The following applies: Anaerobic, 6 h, 37° C.
Data set [10] is described as follows: Growth promotion and feed utilization in chicks. The class given is in vivo, chicks (broiler cockerels). The following applies: for feed efficiency (% better or worse than control) / weight gain (% better or worse than control): 8 weeks.
Data set [11] deals with anaerobic bacteria. The class given is cell-based.
The mark [12] stands for this setting: experiment set 4, 50 ppm in feed.
The mark [13] stands for this setting: experiment set 1, 75 ppm in feed.
Setting [14] is: experiment set 2, 50 ppm in feed.
The mark [15] stands for this setting: experiment set 5, 75 ppm in feed.

Read-outs that look alike come from different tables or passages of the source. Where a SMILES comes first, the peptide text is derived from it. Bridges are numbered along the chain shown (N, C = ends). [ ]: non-standard residue; d: D form. The star is where a group is joined. Ileψ(thiazoline)Cys = CC[C@H](C)[C@H](N)C1=N[C@H](C(=O)*)CS1; dOrn = NCCC[C@@H](N)C(=O)O

`COc1ccc(C2=Nc3cc(C)c(C)cc3NC2c2ccc(OC)cc2O)c(O)c1` (stereo not shown) [Example 8, 2,3-di(2-hydroxy-4-methoxyphenyl)-6,7-dimethyl-1,2-dihydroquinoxaline]: in data set [1], the inhibition at 0.001 ppm is 0%, the inhibition at 0.01 ppm was found to be 9%, the inhibition at 0.1 ppm came to 12% and the inhibition at 1 ppm is 99%. The “% Inhibition of Coccidia: T = toxic” value in data set [2] (10.0 ppm) is “T”. The “% Inhibition of Coccidia: T = toxic” value in data set [2] (100 ppm) is recorded as “T”.
Regarding `NC[C@H]1O[C@H](O[C@H]2[C@H](O)[C@@H](O[C@H]3O[C@H](CO)[C@@H](O)[C@H](N)[C@H]3O)[C@H](N)C[C@@H]2N)[C@H](O)[C@@H](O)[C@@H]1O` [Kanamycin], the “Growth of S.T. in the presence of the test compound” value in data set [3] (6.4 ppm) is reported as “+”; in data set [3] (64 ppm), “-”. The “Growth of E.C. 324 in the presence of the test compound” value in data set [4] (6.4 ppm) is “+”; in [4] (64 ppm) it was “-”. In addition, the “Growth of E.C. 046 in the presence of the test compound” value in data set [5] (6.4 ppm) and in [5] (64 ppm) was “+” throughout. For the same compound, the “Growth of Strep C15 in the presence of the test compound” value (from here on “Growth of Strep C15”) in [6] (6.4 ppm) and in [6] (64 ppm) was “-” throughout. For the same compound, the “Growth of Strep A7 in the presence of the test compound” value (from here on “Growth of Strep A7”) in data set [7] (6.4 ppm) and in data set [7] (64 ppm) was “-” each time. In addition, the “Growth of Cp in the presence of the test compound” value (“Growth of Cp” for short) in data set [8] (6.4 ppm) and in [8] (64 ppm) was “+” throughout. The “Growth of Bf in the presence of the test compound” value (shortened to “Growth of Bf”) in [9] (6.4 ppm) and in data set [9] (64 ppm) was “-” each time. For the same compound, in data set [10] (setting [12]), the “feed efficiency (% better or worse than control)” value is listed as 19%. Further, the “weight gain (% better or worse than control)” value in data set [10] (setting [12]) is recorded as 14%.
On to `Oc1ccccc1C1=Nc2cc(Cl)c(Cl)cc2NC1c1ccccc1O` (stereo not shown) [Example 2, 2,3-di(2-hydroxyphenyl)-6,7-dichloro-1,2-dihydroquinoxaline], for which, in [1], the inhibition at 0.001 ppm turned out to be 42%, the inhibition at 0.01 ppm was determined as 71%, the inhibition at 0.1 ppm is 89% and the inhibition at 1 ppm turned out to be 100%. Also, in data set [2] (10.0 ppm), the “% Inhibition of Coccidia: T = toxic” value is listed as “T”. In addition, in data set [2] (100 ppm), the “% Inhibition of Coccidia: T = toxic” value was “T”.
As to `Oc1ccc(Cl)cc1C1=Nc2ccccc2NC1c1cc(Cl)ccc1O` (stereo not shown) [Example 5, 2,3-di(2-hydroxy-5-chlorophenyl)-1,2-dihydroquinoxaline], in data set [1], the inhibition at 0.001 ppm is 1%, the inhibition at 0.01 ppm came to 0%, the inhibition at 0.1 ppm was determined as 6% and the inhibition at 1 ppm turned out to be 31%. For the same compound, the inhibition at 10 ppm in data set [1] (10.0 ppm) was found to be 100%. Further, in data set [2] (100 ppm), the “% Inhibition of Coccidia: T = toxic” value is on record as “T”.
Turning to `CC[C@H](C)[C@H](N)C1=N[C@H](C(=O)N[C@@H](CC(C)C)C(=O)N[C@H](CCC(=O)O)C(=O)N[C@H](C(=O)N[C@H]2CCCCNC(=O)[C@H](CC(N)=O)NC(=O)[C@@H](CC(=O)O)NC(=O)[C@H](Cc3cnc[nH]3)NC(=O)[C@@H](Cc3ccccc3)NC(=O)[C@H]([C@@H](C)CC)NC(=O)[C@@H](CCCN)NC2=O)[C@@H](C)CC)CS1` [Bacitracin] ({Ileψ(thiazoline)Cys}-L[dE]IK[dOrn]I[dF]H[dD]N; lactam 4-C), the “Growth of S.T. in the presence of the test compound” value in data set [3] (6.4 ppm) and in [3] (64 ppm) was “+” each time. Further, the “Growth of E.C. 324 in the presence of the test compound” value in data set [4] (6.4 ppm) and in data set [4] (64 ppm) was “+” in each case. The “Growth of E.C. 046 in the presence of the test compound” value in [5] (6.4 ppm) and in [5] (64 ppm) was “+” in each case. Also, the “Growth of Strep C15” value in data set [6] (6.4 ppm) and in data set [6] (64 ppm) was “-” throughout. The “Growth of Strep A7” value in data set [7] (6.4 ppm) and in [7] (64 ppm) was “-” throughout. The results for the “Growth of Cp” value in data set [8] (6.4 ppm) and in data set [8] (64 ppm) were “+” and “-”, respectively. Besides, the “Growth of Bf” value in [9] (6.4 ppm) and in data set [9] (64 ppm) was “-” in each case. The entries for the “feed efficiency (% better or worse than control)” value in data set [10] (setting [13]) and in [10] (setting [14]) were 19% and 32%, respectively. The “weight gain (% better or worse than control)” value in data set [10] (setting [13]) is 25%; in data set [10] (setting [14]) it was 40%.
For the compound `Oc1ccc(Cl)cc1C1=Nc2cc(Cl)c(Cl)cc2NC1c1cc(Cl)ccc1O` (stereo not shown) [Example 1, 2,3-Di(2-hydroxy-5-chlorophenyl)-6-7-dichloro-1,2-dihydroquinoxaline], the “Growth of S.T. in the presence of the test compound” value in [3] (6.4 ppm) and in data set [3] (64 ppm) was “+” in each case. Further, the “Growth of E.C. 324 in the presence of the test compound” value in data set [4] (6.4 ppm) and in data set [4] (64 ppm) was “+” throughout. Also, the “Growth of E.C. 046 in the presence of the test compound” value in data set [5] (6.4 ppm) and in data set [5] (64 ppm) was “+” each time. Also, the “Growth of Strep C15” value in [6] (6.4 ppm) and in [6] (64 ppm) was “+” each time. The “Growth of Strep A7” value in data set [7] (6.4 ppm) and in data set [7] (64 ppm) was “+” each time. Besides, the “Growth of Cp” value in [8] (6.4 ppm) and in data set [8] (64 ppm) was “-” throughout. The “Growth of Bf” value in data set [9] (6.4 ppm) and in data set [9] (64 ppm) was “-” in each case. The “activity against anaerobic bacteria” value in [11] was “possessed activity against both anaerobic microorganisms”. Further, in data set [10] (setting [15]), the “feed efficiency (% better or worse than control)” value was 13%. Moreover, the “weight gain (% better or worse than control)” value in data set [10] (setting [15]) came out at 6%. Moreover, the “growth promotion / feed efficiency” value in data set [10] (in vivo) was “found to improve both weight gain and feed efficiency”. The inhibition at 0.001 ppm in [1] was found to be 53%. Besides, in data set [1], the inhibition at 0.01 ppm is 67%. Moreover, in data set [1], the inhibition at 0.1 ppm was 61%. The inhibition at 1 ppm in [1] came out at 98%. Besides, the “% Inhibition of Coccidia: T = toxic” value in data set [2] (10.0 ppm) and in [2] (100 ppm) was “T” throughout.

In general, inhibition refers to the relative decrease from the control value, in per cent.

These data come from patent US4803209A, “Substituted 2,3-diphenyl-1,2-dihydroquinoxalines” (International Minerals & Chemical Corp., priority 1987, dated 1989).
